Molecular target: T1, human M1 receptor (hCHRM1) (Homo sapiens, UniProt P11229)
T1 construct: expressed in transfected cells
T1 sequence (P11229 1-460): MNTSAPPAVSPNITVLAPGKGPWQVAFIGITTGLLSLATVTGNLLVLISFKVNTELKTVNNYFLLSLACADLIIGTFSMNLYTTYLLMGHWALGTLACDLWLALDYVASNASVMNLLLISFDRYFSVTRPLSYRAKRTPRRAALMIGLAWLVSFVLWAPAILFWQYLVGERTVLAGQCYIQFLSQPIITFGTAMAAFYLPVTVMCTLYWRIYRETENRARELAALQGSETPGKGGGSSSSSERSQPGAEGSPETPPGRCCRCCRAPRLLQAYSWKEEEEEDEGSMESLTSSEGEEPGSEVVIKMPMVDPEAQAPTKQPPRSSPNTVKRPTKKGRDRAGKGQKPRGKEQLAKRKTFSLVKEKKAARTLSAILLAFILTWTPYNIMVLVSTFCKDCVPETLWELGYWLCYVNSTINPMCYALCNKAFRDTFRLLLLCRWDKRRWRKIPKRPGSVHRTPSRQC
Test: Measurement of M1 receptor positive allosteric modulator (M1PAM) activity (IP1 HTRF, in presence of EC20 acetylcholine)
Format: cell-based
Details: CHO-K1 cells stably expressing hCHRM1; acetylcholine at EC20 concentration; IP1 readout
Method: Measurement of M1 Receptor Positive Allosteric Modulator (M1PAM) Activity
The activity of a test compound in the presence of acetylcholine at an EC20 concentration affording about 20% action of the maximum activity was measured as PAM activity.
The method therefor is as follows. To a 384-well white plate (Greiner) was added 4 μL of the test compound diluted with IP1 Stimulation buffer (CisBio) containing 0.1% fatty acid-free BSA containing 80 nM acetylcholine. Freeze stock of CHO-K1 cells stably expressing human M1 receptor (hCHRM1) was prepared with IP1 Stimulation buffer (CisBio) containing 0.1% fatty acid-free BSA, 4 μL thereof was added (10,000 cells/well) and the mixture was cultured in a 5% CO2 incubator at 37° C. for 1 hr. 4 μL of a solution (CisBio) containing IP1-d2 and Anti-IP1-cryptate Tb conjugate was added, the mixture was incubated at room temperature for 1 hr, and the time-resolved fluorescence signal was measured on an Envision plate reader (PerkinElmer). The activity (%) of the test compound was calculated by defining the value when acetylcholine was added at the final concentration of 20 μM as 100% and the value when DMSO was added instead of the test compound under acetylcholine-free conditions as 0%, and the EC50 value was calculated as a value of 50% of the concentration dependence curve of the test compound.

Cc1c(Cc2ccc(-c3cnn(C)c3)nc2)cc(C(=O)N[C@H]2CCOC[C@@H]2O)c2c1CCO2 [Example 2, 1,5-anhydro-2,3-dideoxy-3-[{4-methyl-5-{[6-(1-methyl-1H-pyrazol-4-yl)pyridin-3-yl]methyl}-2,3-dihydro-1-benzofuran-7-carbonyl)amino]-L-threo-pentitol]
EC50: 33 nM

Cc1nn(C)cc1-c1ccc(Cc2cc(C(=O)N[C@H]3CCOC[C@@H]3O)c3c(c2C)CCO3)cn1 [Example 3, 1,5-anhydro-2,3-dideoxy-3-[(5-{[6-(1,3-dimethyl-1H-pyrazol-4-yl)pyridin-3-yl]methyl}-4-methyl-2,3-dihydro-1-benzofuran-7-carbonyl)amino]-L-threo-pentitol]
EC50: 46 nM

Cc1c(Cc2ccc(C(N)=O)cc2)cc(C(=O)N[C@H]2CCOC[C@@H]2O)c2c1CCO2 [Example 5, 1,5-anhydro-3-({5-[(4-carbamoylphenyl)methyl]-4-methyl-2,3-dihydro-1-benzofuran-7-carbonyl}amino)-2,3-dideoxy-L-threo-pentitol]
EC50: 12 nM

CNC(=O)c1ccc(Cc2cc(C(=O)N[C@H]3CCOC[C@@H]3O)c3c(c2C)CCO3)cc1F [Example 21, 1,5-anhydro-2,3-dideoxy-3-[(5-{[3-fluoro-4-(methylcarbamoyl)phenyl]methyl)-4-methyl-2,3-dihydro-1-benzofuran-7-carbonyl)amino]-L-threo-pentitol]
EC50: 24 nM

Cc1c(Cc2ccc(C(=O)NC[C@@H]3CCCO3)c(F)c2)cc(C(=O)N[C@H]2CCOC[C@@H]2O)c2c1CCO2 [Example 30, 1,5-anhydro-2,3-dideoxy-3-[(5-{[3-fluoro-4-({[(2S)-oxolan-2-yl]methyl}carbamoyl)phenyl]methyl}-4-methyl-2,3-dihydro-1-benzofuran-7-carbonyl)amino]-L-threo-pentitol]
EC50: 56 nM

Cc1c(Cc2ccc(C(=O)NC3CC3)c(F)c2)cc(C(=O)N[C@H]2CCOC[C@@H]2O)c2c1CCO2 [Example 31, 1,5-anhydro-3-[(5-{[4-(cyclopropylcarbamoyl)-3-fluorophenyl]methyl}-4-methyl-2,3-dihydro-1-benzofuran-7-carbonyl)amino]-2,3-dideoxy-L-threo-pentitol]
EC50: 37 nM

Cc1c(Cc2ccc(C(=O)NCCF)c(F)c2)cc(C(=O)N[C@H]2CCOC[C@@H]2O)c2c1CCO2 [Example 35, 1,5-anhydro-2,3-dideoxy-3-{[5-({3-fluoro-4-[(2-fluoroethyl)carbamoyl]-phenyl}methyl)-4-methyl-2,3-dihydro-1-benzofuran-7-carbonyl]amino}-L-threo-pentitol]
EC50: 16 nM

CNC(=O)c1ccc(Cc2cc(C(=O)N[C@H]3CCOC[C@@H]3O)c3c(c2C)CCO3)cn1 [Example 36, 1,5-anhydro-2,3-dideoxy-3-[(4-methyl-5-{[6-(methylcarbamoyl)pyridin-3-yl]methyl}-2,3-dihydro-1-benzofuran-7-carbonyl)amino]-L-threo-pentitol]
EC50: 130 nM

Source: patent US11970483B2, “Heterocyclic compound” (Takeda Pharmaceutical Company Limited, priority 2018, dated 2024)
